Results: patent US8815948B2, “High volume and alternative methods of delivering homeopathic remedies” (Dovetail Technologies, Inc., priority 2004, dated 2014)

Test system: cat with Gran Mal seizures
Experiment: Taurox SB added to food of a cat with Gran Mal seizures
Format: in vivo
Settings: cat Misty, before Taurox SB
Excerpt: The homeopathic remedy may be included in food. For example, Misty, a cat who had been accepted by a rescue shelter, suffered with severe, potentially life-threatening Gran Mal seizures about three times a day and almost every other day. […] Overall, she averaged a few a month while being treated.
The homeopathic remedy may also be included in food. […] This invention applies to all foods from treats treated with the homeopathic on site, to the bulk supplied food while making it, to massive watering systems used to water livestock or irrigate fields. It applies to all forms of life including human, animal and plant.

Bromide salts
benefit on seizures of earlier medication: without significant benefits
